Consider 2 compounds from patent US6703398B2, “Orally administered analgesic compositions containing nalbuphine” (priority 2001, dated 2004).

Data set [1] is described as follows: Efficacy and bioavailability study of nalbuphine ester prodrugs as orally administered compositions. Format: in vivo, animals and humans. To be noted: oral composition with oily substance, effect of adding the solubility-assisting agent; comparison among active ingredients. The text has this:
Each and every one of these nalbuphine and/or nalbuphine ester prodrugs as listed above has been tested for suitability as an orally administered pharmaceutical composition for use in animals and humans. The efficacy and bioavailability of these nalbuphine ester prodrugs have been studied.

Data set [2] is described as follows: Pharmacokinetics of nalbuphine in beagles after oral administration of SDN compositions. To be noted: 30 mg/kg of SDN; for AUC/Dose: nalbuphine in plasma, 30 mg/kg. The protocol: To assess the effects of various pharmaceutical compositions of the present invention on beagles. The compositions were orally administered into beagles, and the concentration of nalbuphine in vivo was monitored in the animals as follows:
2, In each study group, the pharmaceutical composition that contained 30 mg/kg of SDN were orally given to beagles.
4. The blood samples were analyzed by high performance liquid chromatography (HPLC) to determine the pharmacokinetics (including the half-life and bioavailability of nalbuphine) in vivo.

The conditions of data set [3]: literature; cited from earlier work.

Regarding `O=C(CCCCCCCCC(=O)Oc1ccc2c3c1O[C@H]1[C@@H](O)CC[C@@]4(O)[C@@H](C2)N(CC2CCC2)CC[C@]314)Oc1ccc2c3c1O[C@H]1[C@@H](O)CC[C@@]4(O)[C@@H](C2)N(CC2CCC2)CC[C@]314` [SDN Powder, sebacoyl dinalbuphine ester], in data set [1], the “bioavailability and half-life of nalbuphine in blood” value is “the best in terms of longer half-life and greater bioavailability rate”. Also, the “concentration of nalbuphine in plasma 1-3 hours after the oral uptake of SDN” value in data set [2] (FIG. 1, comparison among groups) is recorded as “much less than the other two groups”. The “concentration of nalbuphine in plasma after the peak” value in data set [2] (FIG. 1, later time points) is reported as “decreased substantially”. For the same compound, in data set [2] (bioavailability of nalbuphine, means ± S.E.), the Bioavailability was found to be 14.6%. Also, in data set [2] (nalbuphine in plasma by HPLC, means ± S.E.), the “Nalbuphine Half-Life” value was found to be 8.1 ± 1.6 h. The AUC/Dose in data set [2] (means ± S.E.) was found to be 39 ± 11 ng·kg·h/mL/mg; in data set [2] (means ± S.E., listed as SDN Powder Group), 39 ng·kg·h/mL/mg.
As to “nalbuphine hydrochloride [nalbuphine-HCl]”, the “bioavailability through oral administration” value in data set [3] is on record as “less than 5%”.
